Structures are written as SMILES.

Among the data in patent US20140286903A1, “Substituted Purine Nucleosides, Phosphoramidate and Phosphordiamidate Derivatives for Treatment if Viral Infections” (INHIBITEX, INC., priority 2011, published 2014) are IC50 and CC50 values, retold here.

Data set [1] has as its system HCV replicon (Genotype 1b). Kind of data set: Luciferase genotype 1b replicon potency assay. In kind it is cell-based, hepatitis C virus. The following applies: Renilla luciferase reporter activity, 50% decrease vs untreated cells. As to the method: (§1) Further to the above Examples, representative compounds, prepared according to the examples were tested for potency in an HCV replicon assay (Genotype 1b) for activity against the virus (EC50) and toxicity to the cells (CC50).
(§2) Huh7 Replicon Cell Lines and Cell Culture Conditions: A luciferase-reporter genotype 1b subgenomic replicon cell line, and a genotype 1a full-length replicon cell line were obtained from Apath, LLC, Brooklyn, N.Y.: All cell lines were passaged twice a week by splitting 4 or 6 fold. Cells were maintained in DMEM-high glucose medium (HyClone, Logan, Utah) supplemented with 9% FBS (HyClone), 2 mM glutamine (Invitrogen, Carlsbad, Calif.), 100 U/mL PenStrep (Invitrogen). Media also contained 0.25 mg/mL of the antibiotic G-418 to maintain stable expression of the replicon (Invitrogen). Incubation was performed at 37° C. in 5% CO2 atmosphere. Replicon cell lines were used until they accumulated 15-to-18 passages, after which cells were restarted from the frozen stock. Seeding cell counts were routinely determined using an automatic Cedex HiRes cell counter (Flownomics Analytical Instruments, Madison, Wis.) or manually using INCYTO C-Chip™ Disposable Hemacytometers (Fisher Scientific, Pittsburg, Pa.).
Luciferase Genotype 1b Replicon Potency Assay. Replicon cells were seeded into white 96-well plates (Nunc/VWR) at a density of 2×10^4 cells/well in medium without G-418. A Stacker Multidrop Liquid Dispenser (MTX Lab Systems, Vienna, Va.) was employed to ensure uniform and fast cell seeding into multiple plates. 18-24 h after cell plating, inhibitors were added and cells were incubated for additional 24, 48, or 72 h (as indicated). Compounds were tested in triplicates and quadruplicates at 3× or 4× serial dilutions over a range of 0.0001-to-10 μM concentrations. HCV replication was monitored by Renilla luciferase reporter activity assay using Renilla luciferase reporter (Promega, Madison, Wis.) and a Veritas Luminometer (Turner Biosystems, Sunnyvale, Calif.). 50% and 90% inhibitory concentration (IC50 and IC90) values were calculated as the concentration of compound that results correspondingly in 50% and 90% decreases in the reporter expression as compared to untreated cells. The values were determined by non-linear regression (four-parameter sigmoidal curve fitting) analysis.
A general note: A replicon is a self-replicating genome or part of one, used to study replication in cells.

Data set [2] is described as follows: Cytotoxicity assay (CellTiter-Glo). In kind it is cell-based. The following applies: human, 72 h incubation, concentration resulting in 50% luminescent signal. As to the method:
as §1, §2
Cytotoxicity Assay. Cells were seeded into 96-well plates at a density of 2×10^4 cells per well. 24 h after cell plating, 11 serial 2× compound dilutions, starting with 100 µM, were applied to the testing plates (3 repeats per compound dilution). Each testing plate was run with a “no-compound” control. Incubation with compounds was continued at 37° C. in a CO2 incubator for 72 h. To determine cell viability, the CellTiter-Glo® assay (Promega, Madison, Wis.) was performed according to the manufacturer's protocol. The compound concentration resulting in 50% luminescent signal was reported as the CC50 concentration.
On the technique in general: ATP-based viability assays read luminescence as a measure of living cells.

[3] abbreviates: Hepatitis C virus, Huh-7, Huh7 luciferase-reporter genotype 1b subgenomic replicon cells.
The mark [4] stands for this setting: Huh7 HCV replicon cells (genotype 1b).

As usually defined, the IC50 is the point on the concentration scale where inhibition reaches its midpoint. Usually CC50 stands for the concentration that lowers cell viability or growth by half. A lower CC50 goes with harm at low concentration. As for `COc1nc(N)nc2c1ncn2[C@@H]1O[C@H](CO)[C@@H](F)[C@@]1(C)O` [Example 2, (2R,3S,4R,5R)-2-(2-amino-6-methoxy-9H-purin-9-yl)-4-fluoro-5-(hydroxymethyl)-3-methyltetrahydrofuran-3-ol], the IC50 in data set [1] (setting [3]) is > 100 µM. Also, the CC50 at 72 h in data set [2] (setting [4]) is > 100 µM.
Turning to `C[C@@]1(O)[C@H](F)[C@@H](CO)O[C@H]1n1cnc2c(=O)[nH]c(N)nc21` [Example 3, 2-amino-9-((2R,3S,4R,5R)-4-fluoro-3-hydroxy-5-(hydroxymethyl)-3-methyltetrahydrofuran-2-yl)-1H-purin-6(9H)-one], the IC50 in data set [1] (setting [3]) is > 100 µM. For the same compound, the half-maximal cytotoxic concentration (CC50) at 72 h in data set [2] (setting [4]) was > 100 µM.
In the case of `COc1nc(N)nc2c1ncn2[C@H]1O[C@H](CO)[C@@H](F)[C@]1(C)O` [Example 4, (2S,3R,4R,5R)-2-(2-Amino-6-methoxy-9H-purin-9-yl)-4-fluoro-5-(hydroxymethyl)-3-methyltetrahydrofuran-3-ol], the IC50 in data set [1] (setting [3]) is > 100 µM. For the same compound, the cytotoxic concentration (CC50) at 72 h in data set [2] (setting [4]) was > 100 µM.
As for `C[C@]1(O)[C@H](F)[C@@H](CO)O[C@@H]1n1cnc2c(Cl)nc(N)nc21` [Example 5, (2S,3R,4R,5R)-2-(2-amino-6-chloro-9H-purin-9-yl)-4-fluoro-5-(hydroxymethyl)-3-methyltetrahydrofuran-3-ol], the half-inhibitory concentration (IC50) in data set [1] (setting [3]) was > 100 µM. The CC50 at 72 h in data set [2] (setting [4]) is > 100 µM.
Consider `CCOc1nc(N)nc2c1ncn2[C@@H]1O[C@H](CO)[C@@H](F)[C@@]1(C)O` [Example 6, (2R,3S,4R,5R)-2-(2-amino-6-ethoxy-9H-purin-9-yl)-4-fluoro-5-(hydroxymethyl)-3-methyltetrahydrofuran-3-ol], for which, in data set [1] (setting [3]), the IC50 was > 100 µM. Moreover, the half-maximal cytotoxic concentration (CC50) at 72 h in data set [2] (setting [4]) was > 100 µM.
As for `C[C@@]1(O)[C@H](F)[C@@H](CO)O[C@H]1n1cnc2c(N3CCC3)nc(N)nc21` [Example 7, (2R,3S,4R,5R)-2-(2-Amino-6-(azetidin-1-yl)-9H-purin-9-yl)-4-fluoro-5-(hydroxymethyl)-3-methyltetrahydrofuran-3-ol], the IC50 was 24 µM in data set [1] (setting [3]) and > 40 µM in data set [1] (Huh7 luciferase-reporter genotype 1b subgenomic replicon cells). Moreover, in data set [2] (setting [4]), the CC50 at 72 h was > 100 µM.
For the compound `C[C@@]1(O)[C@H](F)[C@@H](CO)O[C@H]1n1cnc2c(N)ncnc21` [Example 8, (2R,3S,4R,5R)-2-(6-Amino-9H-purin-9-yl)-4-fluoro-5-(hydroxymethyl)-3-methyltetrahydrofuran-3-ol], the half-inhibitory concentration (IC50) in data set [1] (setting [3]) is > 100 µM. In addition, the cytotoxic concentration (CC50) at 72 h in data set [2] (setting [4]) was > 100 µM.
For `C[C@@]1(O)[C@H](F)[C@@H](CO)O[C@H]1n1ccc(N)nc1=O` [Example 9, 4-Amino-1-((2R,3S,4R,5R)-4-fluoro-3-hydroxy-5-(hydroxymethyl)-3-methyltetrahydrofuran-2-yl)pyrimidin-2(1H)-one], the IC50 in data set [1] (setting [3]) was > 100 µM. Besides, the CC50 at 72 h in data set [2] (setting [4]) is > 100 µM.
For the compound `C[C@@]1(O)[C@H](F)[C@@H](CO)O[C@H]1n1ccc(=O)[nH]c1=O` [Example 10, 1-((2R,3S,4R,5R)-4-Fluoro-3-hydroxy-5-(hydroxymethyl)-3-methyltetrahydrofuran-2-yl)pyrimidine-2,4(1H,3H)-dione], the half-inhibitory concentration (IC50) in data set [1] (setting [3]) turned out to be 23 µM. The 50% cytotoxic concentration (CC50) at 72 h in data set [2] (setting [4]) is > 100 µM.
The like results for `COc1nc(N)nc2c1ncn2[C@@H]1O[C@H](CO)[C@H](F)[C@@]1(C)O` [Example 11, (2R,3S,4S,5R)-2-(2-Amino-6-methoxy-9H-purin-9-yl)-4-fluoro-5-(hydroxymethyl)-3-methyltetrahydrofuran-3-ol] were, in that order, > 100 µM and > 100 µM.
With `COc1nc(N)nc2c1ncn2[C@@H]1O[C@H](COP(=O)(N[C@@H](C)C(=O)OCc2ccccc2)Oc2cccc3ccccc23)[C@@H](F)[C@@]1(C)O` (stereo partly drawn) [Example 12, (2S)-Benzyl 2-((((2R,3R,4S,5R)-5-(2-amino-6-methoxy-9H-purin-9-yl)-3-fluoro-4-hydroxy-4-methyltetrahydrofuran-2-yl)methoxy)(naphthalen-1-yloxy)phosphorylamino)propanoate], half-maximal inhibition in data set [1] (setting [3]) (IC50) required 0.77 µM. The same compound registered a cytotoxic concentration (CC50) at 72 h in data set [2] of 48 µM.
In data set [1] (setting [3]), `COc1nc(N)nc2c1ncn2[C@@H]1O[C@H](COP(=O)(N[C@@H](C)C(=O)OCc2ccc(F)cc2F)Oc2cccc3ccccc23)[C@@H](F)[C@@]1(C)O` (stereo partly drawn) [Example 13, (2S)-2,4-Difluorobenzyl 2-((((2R,3R,4S,5R)-5-(2-amino-6-methoxy-9H-purin-9-yl)-3-fluoro-4-hydroxy-4-methyltetrahydrofuran-2-yl)methoxy)(naphthalen-1-yloxy)phosphorylamino)propanoate] had an IC50 of 1 µM. The CC50 at 72 h in data set [2] came out at 68 µM.
Regarding `CCCCOC(=O)[C@H](C)NP(=O)(OC[C@H]1O[C@@H](n2cnc3c(OC)nc(N)nc32)[C@](C)(O)[C@@H]1F)Oc1cccc2ccccc12` (stereo partly drawn) [Example 14, (2S)-butyl 2-((((2R,3R,4S,5R)-5-(2-amino-6-methoxy-9H-purin-9-yl)-3-fluoro-4-hydroxy-4-methyltetrahydrofuran-2-yl)methoxy)(naphthalen-1-yloxy)phosphorylamino)propanoate], the IC50 in data set [1] (setting [3]) came out at 0.33 µM. The same compound had a cytotoxic concentration (CC50) at 72 h in data set [2] of 40 µM.
The like results for `COc1nc(N)nc2c1ncn2[C@@H]1O[C@H](COP(=O)(N[C@@H](C)C(=O)OCCC(C)(C)C)Oc2cccc3ccccc23)[C@@H](F)[C@@]1(C)O` (stereo partly drawn) [Example 15, (2S)-3,3-Dimethylbutyl 2-((((2R,3R,4S,5R)-5-(2-amino-6-methoxy-9H-purin-9-yl)-3-fluoro-4-hydroxy-4-methyltetrahydrofuran-2-yl)methoxy)(naphthalen-1-yloxy)phosphorylamino)propanoate] were, in that order, 0.5 µM and 21 µM.
As to `COc1nc(N)nc2c1ncn2[C@@H]1O[C@H](COP(=O)(N[C@@H](C)C(=O)OCC(C)(C)C)Oc2cccc3ccccc23)[C@@H](F)[C@@]1(C)O` (stereo partly drawn) [Example 16, (2S)-Neopentyl 2-((((2R,3R,4S,5R)-5-(2-amino-6-methoxy-9H-purin-9-yl)-3-fluoro-4-hydroxy-4-methyltetrahydrofuran-2-yl)methoxy)(naphthalen-1-yloxy)phosphorylamino)propanoate], the midpoint of inhibition in data set [1] (setting [3]), the IC50, lay at 0.37 µM. In data set [2], this compound had a half-maximal cytotoxic concentration (CC50) at 72 h of 29 µM.
Compound `COc1nc(N)nc2c1ncn2[C@@H]1O[C@H](COP(=O)(N[C@@H](C)C(=O)OC2CCCC2)Oc2cccc3ccccc23)[C@@H](F)[C@@]1(C)O` (stereo partly drawn) [Example 17, (2S)-Cyclopentyl 2-((((2R,3R,4S,5R)-5-(2-amino-6-methoxy-9H-purin-9-yl)-3-fluoro-4-hydroxy-4-methyltetrahydrofuran-2-yl)methoxy)(naphthalen-1-yloxy)phosphorylamino)propanoate] returned an IC50 in data set [1] (setting [3]) of 0.45 µM. This compound registered a cytotoxic concentration (CC50) at 72 h in data set [2] of 40 µM.
With `COc1nc(N)nc2c1ncn2[C@@H]1O[C@H](COP(=O)(N[C@@H](C)C(=O)OC2CCCCC2)Oc2cccc3ccccc23)[C@@H](F)[C@@]1(C)O` (stereo partly drawn) [Example 18, (2S)-Cyclohexyl 2-((((2R,3R,4S,5R)-5-(2-amino-6-methoxy-9H-purin-9-yl)-3-fluoro-4-hydroxy-4-methyltetrahydrofuran-2-yl)methoxy)(naphthalen-1-yloxy)phosphorylamino)propanoate], in data set [1] (setting [3]), inhibition was half-maximal at 1.3 µM (IC50). This compound yielded a CC50 at 72 h in data set [2] of 30 µM.
`COc1nc(N)nc2c1ncn2[C@@H]1O[C@H](COP(=O)(N[C@@H](C)C(=O)OC2CCOCC2)Oc2cccc3ccccc23)[C@@H](F)[C@@]1(C)O` (stereo partly drawn) [Example 19, (2S)-Tetrahydro-2H-pyran-4-yl 2-((((2R,3R,4S,5R)-5-(2-amino-6-methoxy-9H-purin-9-yl)-3-fluoro-4-hydroxy-4-methyltetrahydrofuran-2-yl)methoxy)(naphthalen-1-yloxy)phosphorylamino)propanoate] showed an IC50 in data set [1] (setting [3]) of 1.4 µM. In data set [2], this compound showed a 50% cytotoxic concentration (CC50) at 72 h of 77 µM.
`CCOc1nc(N)nc2c1ncn2[C@@H]1O[C@H](COP(=O)(N[C@@H](C)C(=O)OCC(C)(C)C)Oc2cccc3ccccc23)[C@@H](F)[C@@]1(C)O` (stereo partly drawn) [Example 20, (2S)-Neopentyl 2-((((2R,3R,4S,5R)-5-(2-amino-6-ethoxy-9H-purin-9-yl)-3-fluoro-4-hydroxy-4-methyltetrahydrofuran-2-yl)methoxy)(naphthalen-1-yloxy)phosphorylamino)propanoate] displayed an IC50 in data set [1] (setting [3]) of 0.62 µM. Half-maximal cytotoxicity in data set [2] (CC50 at 72 h) was put at 23 µM.
